System: 953936-095-R-J2-PDC spheroids with HUVEC/MSC, viability
Assay: Anticancer human tumor 953936-095-R-J2-PDC patient-derived cervical squamous cell carcinoma cell line growth inhibition [PI3K]
Conditions: for IC50: curve of first compound; for viability, T/C: stronger effect = lower value
In short: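 Stroma-containing spheroids: tumor line, pooled-donor HUVEC, hMSC. Treatments: targeted agents with PI3K inhibitors. Dosing: clinically relevant, half-log spacing, 10 microM ceiling without known Cmax. Read-out: cell viability.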
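Also: spheroids exposed to compounds for seven days before read-out.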

`C=CC(=O)N1CCN(c2nc(=O)n(-c3c(C)ccnc3C(C)C)c3nc(-c4c(O)cccc4F)c(F)cc23)C(C)C1` (centres undefined) + CC(Nc1ncnc2nc[nH]c12)c1cc2cccc(Cl)c2c(=O)n1-c1ccccc1 showed an IC50 (second compound 0.0316 µM) of over 10000 nM, an IC50 (second compound 0.1 µM) of over 10000 nM and an IC50 (second compound 0.316 µM) of over 10000 nM. The IC50 (second compound 1 µM) was over 10000 nM, the IC50 (second compound 3.16 µM) was over 10000 nM and the IC50 (second compound 10 µM) was over 10000 nM. It also gave a viability, T/C (second compound 0.0316 µM, first compound 0.0316 µM) of 92.8%, a viability, T/C (second compound 0.0316 µM, first compound 0.1 µM) of 112% and a viability, T/C (second compound 0.0316 µM, first compound 0.316 µM) of 121%. For the same compound, the viability, T/C (second compound 0.0316 µM, first compound 1 µM) was 119%, the viability, T/C (second compound 0.0316 µM, first compound 3.16 µM) was 118% and the viability, T/C (second compound 0.0316 µM, first compound 10 µM) was 129%. The viability, T/C (second compound 0.1 µM, first compound 0.0316 µM) was 104%, the viability, T/C (second compound 0.1 µM, first compound 0.1 µM) was 108% and the viability, T/C (second compound 0.1 µM, first compound 0.316 µM) was 110%. It also gave a viability, T/C (second compound 0.1 µM, first compound 1 µM) of 122%, a viability, T/C (second compound 0.1 µM, first compound 3.16 µM) of 132% and a viability, T/C (second compound 0.1 µM, first compound 10 µM) of 111%. It also gave a viability, T/C (second compound 0.316 µM, first compound 0.0316 µM) of 94.2%, a viability, T/C (second compound 0.316 µM, first compound 0.1 µM) of 106% and a viability, T/C (second compound 0.316 µM, first compound 0.316 µM) of 111%. The viability, T/C (second compound 0.316 µM, first compound 1 µM) was 118%, the viability, T/C (second compound 0.316 µM, first compound 3.16 µM) was 113% and the viability, T/C (second compound 0.316 µM, first compound 10 µM) was 128%. For the same compound, the viability, T/C (second compound 1 µM, first compound 0.0316 µM) was 91.1%, the viability, T/C (second compound 1 µM, first compound 0.1 µM) was 97.7% and the viability, T/C (second compound 1 µM, first compound 0.316 µM) was 99%. The viability, T/C (second compound 1 µM, first compound 1 µM) was 118%, the viability, T/C (second compound 1 µM, first compound 3.16 µM) was 110% and the viability, T/C (second compound 1 µM, first compound 10 µM) was 113%. For the same compound, the viability, T/C (second compound 3.16 µM, first compound 0.0316 µM) was 85%, the viability, T/C (second compound 3.16 µM, first compound 0.1 µM) was 79.2% and the viability, T/C (second compound 3.16 µM, first compound 0.316 µM) was 79.7%. The viability, T/C (second compound 3.16 µM, first compound 1 µM) was 88.1%, the viability, T/C (second compound 3.16 µM, first compound 3.16 µM) was 107% and the viability, T/C (second compound 3.16 µM, first compound 10 µM) was 105%. For the same compound, the viability, T/C (second compound 10 µM, first compound 0.0316 µM) was 63.7%, the viability, T/C (second compound 10 µM, first compound 0.1 µM) was 67% and the viability, T/C (second compound 10 µM, first compound 0.316 µM) was 62.3%. For the same compound, the viability, T/C (second compound 10 µM, first compound 1 µM) was 82.6%, the viability, T/C (second compound 10 µM, first compound 3.16 µM) was 85.3% and the viability, T/C (second compound 10 µM, first compound 10 µM) was 81%.
In the case of `Cn1cnc2c(F)c(Nc3ccc(Br)cc3Cl)c(C(=O)NOCCO)cc21` + CC(Nc1ncnc2nc[nH]c12)c1cc2cccc(Cl)c2c(=O)n1-c1ccccc1, the IC50 (second compound 0.0316 µM) is reported as 2090 nM, the IC50 (second compound 0.1 µM) is reported as 956 nM and the IC50 (second compound 0.316 µM) is reported as 1160 nM. The IC50 (second compound 1 µM) was 732 nM, the IC50 (second compound 3.16 µM) was 366 nM and the IC50 (second compound 10 µM) was under 9.49 nM. It also gave a viability, T/C (second compound 0.0316 µM, first compound 0.00949 µM) of 79.1%, a viability, T/C (second compound 0.0316 µM, first compound 0.03 µM) of 78.9% and a viability, T/C (second compound 0.0316 µM, first compound 0.0949 µM) of 69.7%. It also gave a viability, T/C (second compound 0.0316 µM, first compound 0.3 µM) of 67.6%, a viability, T/C (second compound 0.0316 µM, first compound 0.949 µM) of 57% and a viability, T/C (second compound 0.0316 µM, first compound 3 µM) of 46.6%. For the same compound, the viability, T/C (second compound 0.1 µM, first compound 0.00949 µM) was 90.2%, the viability, T/C (second compound 0.1 µM, first compound 0.03 µM) was 86.3% and the viability, T/C (second compound 0.1 µM, first compound 0.0949 µM) was 77.7%. For the same compound, the viability, T/C (second compound 0.1 µM, first compound 0.3 µM) was 57.6%, the viability, T/C (second compound 0.1 µM, first compound 0.949 µM) was 54.7% and the viability, T/C (second compound 0.1 µM, first compound 3 µM) was 39.5%. For the same compound, the viability, T/C (second compound 0.316 µM, first compound 0.00949 µM) was 90.2%, the viability, T/C (second compound 0.316 µM, first compound 0.03 µM) was 68.8% and the viability, T/C (second compound 0.316 µM, first compound 0.0949 µM) was 74.2%. The viability, T/C (second compound 0.316 µM, first compound 0.3 µM) was 68.2%, the viability, T/C (second compound 0.316 µM, first compound 0.949 µM) was 53.1% and the viability, T/C (second compound 0.316 µM, first compound 3 µM) was 36%. It also gave a viability, T/C (second compound 1 µM, first compound 0.00949 µM) of 85.5%, a viability, T/C (second compound 1 µM, first compound 0.03 µM) of 77.3% and a viability, T/C (second compound 1 µM, first compound 0.0949 µM) of 65%. The viability, T/C (second compound 1 µM, first compound 0.3 µM) was 58.8%, the viability, T/C (second compound 1 µM, first compound 0.949 µM) was 48.1% and the viability, T/C (second compound 1 µM, first compound 3 µM) was 38.6%. The viability, T/C (second compound 3.16 µM, first compound 0.00949 µM) was 76.4%, the viability, T/C (second compound 3.16 µM, first compound 0.03 µM) was 60.5% and the viability, T/C (second compound 3.16 µM, first compound 0.0949 µM) was 60.4%. The viability, T/C (second compound 3.16 µM, first compound 0.3 µM) was 54%, the viability, T/C (second compound 3.16 µM, first compound 0.949 µM) was 42.5% and the viability, T/C (second compound 3.16 µM, first compound 3 µM) was 33.4%. It also gave a viability, T/C (second compound 10 µM, first compound 0.00949 µM) of 47.5%, a viability, T/C (second compound 10 µM, first compound 0.03 µM) of 44.4% and a viability, T/C (second compound 10 µM, first compound 0.0949 µM) of 38.8%. It also gave a viability, T/C (second compound 10 µM, first compound 0.3 µM) of 30.5%, a viability, T/C (second compound 10 µM, first compound 0.949 µM) of 19.5% and a viability, T/C (second compound 10 µM, first compound 3 µM) of 14.8%.
